Reference: US8759334B2, “Compounds useful for the treatment of metabolic and inflammatory diseases” (Galapagos NV, priority 2011, dated 2014)

Columns and labels:
GPR43 [1] = target: T1, GPR43 (Homo sapiens, UniProt O15552); assay: Calcium mobilization assay without probenecid; type: cell-based; conditions: GPR43 stably expressing cells, triggered with sodium acetate at EC80, read-out: GPR43 assay without probenicid IC50
T1 construct: expressed in transfected cells
T1 sequence (O15552 1-330): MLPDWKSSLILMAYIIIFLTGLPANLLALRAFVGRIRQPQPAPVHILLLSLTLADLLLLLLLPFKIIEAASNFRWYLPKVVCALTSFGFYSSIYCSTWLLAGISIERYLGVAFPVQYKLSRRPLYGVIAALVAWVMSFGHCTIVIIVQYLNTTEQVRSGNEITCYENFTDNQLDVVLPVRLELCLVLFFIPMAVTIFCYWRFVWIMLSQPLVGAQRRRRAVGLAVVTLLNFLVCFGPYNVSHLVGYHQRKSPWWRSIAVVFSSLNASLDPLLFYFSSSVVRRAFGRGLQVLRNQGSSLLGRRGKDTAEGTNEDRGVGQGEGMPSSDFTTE
Outline: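 In GPR43-expressing cells loaded with a Calcium 4 dye, antagonism was tested by a 15 min compound preincubation at 37 °C, then a sodium acetate challenge at EC80, with Ca-flux read on injection. For agonism, Ca-flux was recorded directly on compound injection.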

GPR43 [2] = target: T1, GPR43; assay: Calcium mobilization assay with probenecid; type: cell-based; conditions: GPR43 stably expressing cells; triggered with sodium acetate at EC80; 2.5 mM probenecid; read-out: GPR43 assay with probenicid IC50
Outline: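 […] being added at rising concentrations to a GPR43 stable line. Before this, cells were dye-loaded (Calcium 4 with 2.5 mM probenecid) for 2 h at 37 °C after overnight plating.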

GPR43 [3] = target: T1, GPR43; assay: [35S]GTPγS binding assay; type: biochemical; conditions: membranes from stable cell line over expressing GPR43; sodium acetate at EC80
Experimental: The assay was performed in a 96 well plate where the following reagents were added. […] In a last step, 30 μL of a mixture consisting of membranes-GTPγS-SpA beads was added (mixture consists of 10 μg/well membranes derived from stable cell line over expressing GPR43 (membranes were pre-incubated with 3 μM GDP for 15 minutes at 4° C.), 0.1 nM [35S]GTPγS (Perkin Elmer, NEG030) and 0.5 mg/well PVT-WGA SpA beads (perkin Elmer, RPNQ0001)). […] Reactions were incubated for 240 minutes at room temperature followed by centrifugation at 2000 rpm for 15 minutes. Plates were read on a Topcount immediately after centrifugation (readout time, 1 minute/well).

human neutrophils = assay: Neutrophil migration assay; type: cell-based; conditions: neutrophils from human buffy coat, migration towards sodium acetate, read-out: human neutrophil migration inhibition EC50
Experimental: G Protein-Coupled Receptor 43 (GPR43) was described as an essential player in the process of neutrophil recruitment during intestinal inflammation.
The effect of agonists or antagonists for GPR43 can therefore be assayed in a neutrophil migration test. In the neutrophil migration assay, neutrophils, isolated from buffy coats from human volunteers, are treated with a compound for 30 minutes. Subsequently, the neutrophils are transferred to the upper wells of a Corning HTS transwell 96 permeable support system, of which the lower wells are filled with a sodium acetate solution.
The ACD buffer consists of 140 mM citric acid, 200 mM sodium citrate and 220 mM dextrose. The 6% dextran/0.9% NaCl solution consists of 15 g dextran T2000 and 2.25 g NaCl dissolved in 250 mL H2O.
A human buffy coat is diluted with an equal volume of ice cold DPBS. 20 mL of the diluted buffy coat is gently mixed with 4 mL of ACD buffer. Then, 12 mL of the 6% dextran/0.9% NaCl solution is added to the mixture and the samples are inverted gently up to 20 times. The total volume is transferred to a new recipient and incubated at room temperature for 1 h for complete separation of the two phases to occur. The yellowish supernatant is then transferred to a clean centrifugation tube and centrifuged for 12 minutes at 1300 rpm and 4° C. After centrifugation, the supernatant is discarded and the remaining cell pellet is rapidly resuspended in 12 mL of ice-cold H2O for red blood cell lysis to occur. After 20 seconds, 4 mL of ice-cold 0.6 M KCl is added. Samples are mixed carefully and centrifuged for 6 minutes at 1300 rpm, 4° C. The supernatant is discarded and the red blood cell lysis procedure is repeated one more time. […] After centrifugation for 12 min at 1300 rpm, 4° C., the supernatant is removed and the cell pellet, containing the neutrophils, is resuspended in 25 mL chemotaxis buffer.
A cell suspension of 8.9×10^6 cells per milliliter is prepared. 20 μL of compound solution in chemotaxis buffer is added to 180 μl cell suspension. The mixture is incubated at 37° C. for 30 minutes with Intermediate resuspension of the cells after 15 minutes. […] The receiver well of the transwell system is then filled with 200 μL chemotaxis buffer containing compound and chemotactic agent (sodium acetate). After incubation at 37° C. in 5% CO2 for 1 h, the upper plate of the transwell system is removed and the cell suspension in the receiver plate is transferred to a 96-well V-bottom plate. 50 μL of DPBS is added to the receiver plate to prevent remaining cells from drying out. The V-bottom plate is centrifuged for 6 minutes at 1500 rpm. The supernatant is removed and the cells are resuspended in 50 μL DPBS. The cells are then transferred back to the receiver plate of the transwell system. […] The plate is incubated for 10 minutes in the dark, while shaking. 170 μL of cell lysate is then transferred to a white 96-well plate and luminescence is measured. The detected luminescent signal is considered as linearly related to the number of migrated cells.

For `CC1(C(=O)N(CCO)Cc2ccc(Cl)cc2)CCN1C(=O)Cc1csc2ccccc12` (stereo not shown) [Compound 67, 1-(2-Benzo[b]thiophen-3-yl-acetyl)-2-methyl-azetidine-2-carboxylic acid (4-chloro-benzyl)-(2-hydroxy-ethyl)-amide], the IC50 (GPR43 [1]) was 0.01 to 100 nM, the IC50 (GPR43 [2]) was > 1000 nM and the IC50 (GPR43 [3]) was 101 to 500 nM.
Work on `Cc1cc(C)cc(CC(=O)N2CCC2(C)C(=O)N(CCCC(N)=O)Cc2ccc(Cl)cc2)c1` (stereo not shown) [Compound 90, 1-[2-(3,5-Dimethyl-phenyl)-acetyl]-2-methyl-azetidine-2-carboxylic acid (3-carbamoyl-propyl)-(4-chloro-benzyl)-amide] yielded an IC50 (GPR43 [1]) of 0.01 to 100 nM, an IC50 (GPR43 [2]) of 101 to 500 nM and an EC50 (human neutrophils) of 0.01 to 100 nM.
Work on `Cc1cc(C)cc(CC(=O)N2CCC2(C)C(=O)N(CC(=O)O)Cc2ccc3cc[nH]c3c2)c1` (stereo not shown) [Compound 96, [{1-[2-(3,5-Dimethyl-phenyl)-acetyl]-2-methyl-azetidine-2-carbonyl}-(1H-indol-6-ylmethyl)-amino]-acetic acid] yielded an IC50 (GPR43 [1]) of 101 to 500 nM, an IC50 (GPR43 [2]) of 101 to 500 nM and an EC50 (human neutrophils) of 0.01 to 100 nM.
Compound `CC1(C(=O)N(CCCC(=O)O)Cc2ccc(Cl)cc2)CCN1C(=O)c1csc2ccccc12` (stereo not shown) [Compound 115, 4-[[1-(Benzo[b]thiophene-3-carbonyl)-2-methyl-azetidine-2-carbonyl]-(4-chloro-benzyl)-amino]-butyric acid] has an IC50 (GPR43 [2]) of 0.01 to 100 nM, an IC50 (GPR43 [3]) of 101 to 500 nM and an EC50 (human neutrophils) of 0.01 to 100 nM.
In the case of `CC1(C(=O)N(CCCC(=O)O)Cc2ccc3cc[nH]c3c2)CCN1C(=O)Cc1csc2ccccc12` (stereo not shown) [Compound 128, 4-[[1-(2-Benzo[b]thiophen-3-yl-acetyl)-2-methyl-azetidine-2-carbonyl]-(1H-indol-6-ylmethyl)-amino]-butyric acid], the IC50 (GPR43 [2]) is reported as 0.01 to 100 nM, the IC50 (GPR43 [3]) is reported as 101 to 500 nM and the EC50 (human neutrophils) is reported as 0.01 to 100 nM.
In the case of `CC1(C(=O)N(CCCC(=O)O)Cc2ccc3cc[nH]c3c2)CCN1C(=O)c1csc2ccccc12` (stereo not shown) [Compound 134, 4-[[1-(Benzo[b]thiophene-3-carbonyl)-2-methyl-azetidine-2-carbonyl]-(1H-indol-6-ylmethyl)-amino]-butyric acid], the IC50 (GPR43 [2]) is reported as 0.01 to 100 nM, the IC50 (GPR43 [3]) is reported as > 501 nM and the EC50 (human neutrophils) is reported as 0.01 to 100 nM.
For `CC1(C(=O)N(CCCC(=O)O)Cc2ccc(C(F)(F)F)cc2)CCN1C(=O)Cc1csc2ccccc12` (stereo not shown) [Compound 144, 4-[[1-(2-Benzo[b]thiophen-3-yl-acetyl)-2-methyl-azetidine-2-carbonyl]-(4-trifluoromethyl-benzyl)-amino]-butyric acid], the IC50 (GPR43 [2]) was 0.01 to 100 nM, the IC50 (GPR43 [3]) was 51 to 100 nM and the EC50 (human neutrophils) was 0.01 to 100 nM.
`CC1(C(=O)N(CCC(=O)O)Cc2ccc(Cl)cc2)CCN1C(=O)c1csc2ccccc12` (stereo not shown) [Compound 155, 3-[[1-(Benzo[b]thiophene-3-carbonyl)-2-methyl-azetidine-2-carbonyl]-(4-chloro-benzyl)-amino]-propionic acid] was tested, and the IC50 (GPR43 [2]) was 0.01 to 100 nM, the IC50 (GPR43 [3]) was > 501 nM and the EC50 (human neutrophils) was 0.01 to 100 nM.
`CC1(C(=O)N(CCC(=O)O)Cc2cccc(Cl)c2)CCN1C(=O)c1csc2ccccc12` (stereo not shown) [Compound 169, 3-[[1-(Benzo[b]thiophene-3-carbonyl)-2-methyl-azetidine-2-carbonyl]-(3-chloro-benzyl)-amino]-propionic acid] was tested, and the IC50 (GPR43 [2]) was 0.01 to 100 nM, the IC50 (GPR43 [3]) was > 501 nM and the EC50 (human neutrophils) was 101 to 500 nM.
`CC1(C(=O)N(CCCS(N)(=O)=O)Cc2ccc(Cl)cc2)CCN1C(=O)c1csc2ccccc12` (stereo not shown) [Compound 182, 1-(Benzo[b]thiophene-3-carbonyl)-2-methyl-azetidine-2-carboxylic acid (4-chloro-benzyl)-(3-sulfamoyl-propyl)-amide] showed an IC50 (GPR43 [2]) of 0.01 to 100 nM and an IC50 (GPR43 [3]) of 101 to 500 nM.
Work on `CC1(C(=O)N(CCCS(N)(=O)=O)Cc2cccc(Cl)c2)CCN1C(=O)c1csc2ccccc12` (stereo not shown) [Compound 187, 1-(Benzo[b]thiophene-3-carbonyl)-2-methyl-azetidine-2-carboxylic acid (3-chloro-benzyl)-(3-sulfamoyl-propyl)-amide] yielded an IC50 (GPR43 [2]) of 0.01 to 100 nM and an IC50 (GPR43 [3]) of 101 to 500 nM.
In the case of `CC1(C(=O)N(CCCC(=O)O)c2ccc(Cl)cc2)CCN1C(=O)c1csc2ccccc12` (stereo not shown) [Compound 194, 4-[[1-(Benzo[b]thiophene-3-carbonyl)-2-methyl-azetidine-2-carbonyl]-(4-chloro-phenyl)-amino]-butyric acid], the IC50 (GPR43 [2]) is reported as 0.01 to 100 nM and the IC50 (GPR43 [3]) is reported as > 501 nM.
Compound `CCC1(C(=O)N(CCCC(=O)O)Cc2cccc(Cl)c2)CCN1C(=O)c1csc2ccccc12` (stereo not shown) [Compound 195, 4-[[1-(Benzo[b]thiophene-3-carbonyl)-2-ethyl-azetidine-2-carbonyl]-(3-chloro-benzyl)-amino]-butyric acid] has an IC50 (GPR43 [2]) of 0.01 to 100 nM and an IC50 (GPR43 [3]) of 101 to 500 nM.
Work on `C[C@@H](c1ccc(Cl)cc1)N(CCCC(=O)O)C(=O)[C@@]1(C)CCN1C(=O)c1csc2ccccc12` [Compound 198, 4-{[(R)-1-(Benzo[b]thiophene-3-carbonyl)-2-methyl-azetidine-2-carbonyl]-[(S)-1-(4-chloro-phenyl)-ethyl]-amino}-butyric acid] yielded an IC50 (GPR43 [2]) of 0.01 to 100 nM and an IC50 (GPR43 [3]) of 101 to 500 nM.
